The text below walks through data of the NIST ThermoML archive (doi:10.1021/je049875+).

Molecules are shown by their SMILES. ± gives the expanded uncertainty stated by the source.

The data set can be described thus: activity coefficient (dimensionless); of the first substance listed, at infinite dilution; xn = mol fraction of the nth substance listed. To be noted: 101.33 kPa, Liquid, Chromatography, x1 = 0.

Take `CCC(C)(C)OC` [2-methoxy-2-methylbutane] + O: the activity coefficient (303.25 K) amounted to 643 ± 39, the activity coefficient (313.25 K) came out at 796 ± 48, the activity coefficient (323.25 K) came out at 942 ± 57 and the activity coefficient (333.25 K) was 1080 ± 65.
The matching figures for `COC(C)(C)C` [2-methoxy-2-methylpropane] + O: 153 ± 9, 195 ± 12, 235 ± 14 and 278 ± 17.
For the compound `CC(C)=O` [acetone] + O, the activity coefficient (303.25 K) was determined as 8.02 ± 0.48, the activity coefficient (313.25 K) was 9.2 ± 0.6, the activity coefficient (323.25 K) came to 9.81 ± 0.58 and the activity coefficient (333.25 K) is 10.3 ± 0.6.
As for `c1ccccc1` [benzene] + O, the activity coefficient runs as follows: (308.95 K) 2470 ± 150; (313.25 K) 2370 ± 140; (318.25 K) 2250 ± 140; (323.15 K) 2140 ± 130.
`CCC(C)=O` [butanone] + O: the activity coefficient (303.25 K) was 29.5 ± 1.8, the activity coefficient (313.25 K) is 33.8 ± 2, the activity coefficient (323.25 K) worked out at 35.9 ± 2.1 and the activity coefficient (333.25 K) was determined as 38.9 ± 2.3.
Turning to `CCOCC` [diethyl ether] + O, the activity coefficient is, setting by setting: (303.25 K) 90.1 ± 5.4; (313.25 K) 113 ± 7; (323.25 K) 135 ± 8; (333.25 K) 158 ± 10.
On to `CC(C)OC(C)C` [diisopropyl ether] + O, for which the activity coefficient (303.25 K) turned out to be 737 ± 44, the activity coefficient (313.25 K) came to 965 ± 58, the activity coefficient (323.25 K) is 1140 ± 69 and the activity coefficient (333.25 K) worked out at 1310 ± 79.
Taken in the same sequence, the figures for `CCCOCCC` [dipropyl ether] + O were 2520 ± 150, 2880 ± 180, 3230 ± 200 and 3230 ± 200.
On to `CCO` [ethanol] + O, for which the activity coefficient turned out to be 5.03 ± 0.3 (303.25 K); 5.33 ± 0.32 (313.25 K); 5.54 ± 0.33 (323.25 K); 5.76 ± 0.34 (333.25 K); 5.96 ± 0.35 (343.25 K).
In the case of `CCOC(C)=O` [ethyl acetate] + O, the activity coefficient amounted to 76.5 ± 4.6 (303.25 K); 85 ± 5 (313.25 K); 90.1 ± 5.4 (323.25 K); 94.7 ± 5.7 (333.25 K); 96.2 ± 5.8 (343.25 K).
`CCOC=O` [ethyl methanoate] + O: the activity coefficient reads like this: (303.25 K) 53.8 ± 3.2; (313.25 K) 55.7 ± 3.3; (323.25 K) 57.1 ± 3.4; (333.25 K) 57.7 ± 3.5.
On to `COC(C)=O` [methyl ethanoate] + O, for which the activity coefficient was determined as 26.2 ± 1.6 (303.25 K); 28.4 ± 1.7 (313.25 K); 29.8 ± 1.8 (323.25 K); 31.2 ± 1.9 (333.25 K); 31.6 ± 1.9 (343.25 K).
As to `COC=O` [methyl methanoate] + O, the activity coefficient reads like this: (303.25 K) 18.7 ± 1.1; (313.25 K) 19.1 ± 1.1; (323.25 K) 19.5 ± 1.2; (333.25 K) 19.8 ± 1.2.
Consider `CCCC(C)=O` [pentan-2-one] + O, for which the activity coefficient (303.25 K) amounted to 105 ± 6, the activity coefficient (313.25 K) was determined as 120 ± 7, the activity coefficient (323.25 K) came out at 128 ± 8 and the activity coefficient (333.25 K) came out at 135 ± 8.
`CCCOC(C)=O` [propyl ethanoate] + O: the activity coefficient is, setting by setting: (303.25 K) 297 ± 18; (313.25 K) 325 ± 20; (323.25 K) 341 ± 21; (333.25 K) 351 ± 21; (343.25 K) 348 ± 21.
`Cc1ccccc1` [toluene] + O: the activity coefficient reads like this: (308.95 K) 8570 ± 520; (313.25 K) 8090 ± 490; (318.25 K) 7720 ± 470; (323.15 K) 7110 ± 430.
